Data reported in patent US20230346827A1 (priority 2020, published 2023).

Test system: rats subjected to sTBI
Experiment: sTBI rats, LMW-DS 1, 5, 15 mg/kg s.c. 30 min post-TBI: HPLC of brain free amino acids (Example 4)
Type: in vivo, rat
Settings: for HYS concentration in deproteinized brain homogenate / ILE concentration in deproteinized brain homogenate / LEU concentration in deproteinized brain homogenate / LYS concentration in deproteinized brain homogenate / PHE concentration in deproteinized brain homogenate / TAU concentration in deproteinized brain homogenate / TRP concentration in deproteinized brain homogenate / TYR concentration in deproteinized brain homogenate / VAL concentration in deproteinized brain homogenate: rats 7 days post-sTBI, mean ± S.D. of 12 animals
[1] = 15 mg/kg repeated, 7 d post-sTBI
[2] = repeated administration of 15 mg/kg b.w.
[3] = single administration 1 mg/kg b.w.
[4] = single administration 5 mg/kg b.w.
[5] = single administration 15 mg/kg b.w.

Q: Which results are given for sodium salt of dextran sulfate [LMW-DS]?
A: GLN [1]: 3.88 ± 0.40 nmol/g w.w.; GLU [1]: 10.78 ± 0.91 nmol/g w.w.; GLY [1]: 0.78 ± 0.10 nmol/g w.w.; L-Cystat [1]: 0.44 ± 0.07 nmol/g w.w.; MET [1]: 0.05 ± 0.01 nmol/g w.w.; ORN [1]: 0.02 ± 0.01 nmol/g w.w.; SAH [1]: 0.04 ± 0.04 nmol/g w.w.; SER [1]: 0.79 ± 0.13 nmol/g w.w.; THR [1]: 0.77 ± 0.14 nmol/g w.w.; ALA (15 mg/kg, 2 d post-sTBI): 0.68 ± 0.07 nmol/g w.w.; ARG (15 mg/kg, 2 d post-sTBI): 0.16 ± 0.04 nmol/g w.w.; ASN (15 mg/kg, 2 d post-sTBI): 0.17 ± 0.03 nmol/g w.w.; ASP (15 mg/kg, 2 d post-sTBI): 3.05 ± 0.42 nmol/g w.w.; CITR (15 mg/kg, 2 d post-sTBI): 0.01 ± 0.01 nmol/g w.w.; GABA (15 mg/kg, 2 d post-sTBI): 1.58 ± 0.14 µmol/g w.w.; GLN (15 mg/kg, 2 d post-sTBI): 4.21 ± 0.51 nmol/g w.w.; GLU (15 mg/kg, 2 d post-sTBI): 11.79 ± 0.55 nmol/g w.w.; GLY (15 mg/kg, 2 d post-sTBI): 1.18 ± 0.23 nmol/g w.w.; HYS (15 mg/kg, 2 d post-sTBI): 0.10 ± 0.01 nmol/g w.w.; ILE (15 mg/kg, 2 d post-sTBI): 0.06 ± 0.01 nmol/g w.w.; L-Cystat (15 mg/kg, 2 d post-sTBI): 0.41 ± 0.08 nmol/g w.w.; LEU (15 mg/kg, 2 d post-sTBI): 0.04 ± 0.01 nmol/g w.w.; LYS (15 mg/kg, 2 d post-sTBI): 0.32 ± 0.12 nmol/g w.w.; MET (15 mg/kg, 2 d post-sTBI): 0.03 ± 0.01 nmol/g w.w.; ORN (15 mg/kg, 2 d post-sTBI): 0.02 ± 0.01 nmol/g w.w.; PHE (15 mg/kg, 2 d post-sTBI): 0.06 ± 0.01 nmol/g w.w.; SAH (15 mg/kg, 2 d post-sTBI): 0.06 ± 0.02 nmol/g w.w.; SER (15 mg/kg, 2 d post-sTBI): 0.76 ± 0.06 nmol/g w.w.; TAU (15 mg/kg, 2 d post-sTBI): 4.59 ± 0.43 nmol/g w.w.; THR (15 mg/kg, 2 d post-sTBI): 0.61 ± 0.13 nmol/g w.w.; TRP (15 mg/kg, 2 d post-sTBI): 0.04 ± 0.01 nmol/g w.w.; TYR (15 mg/kg, 2 d post-sTBI): 0.17 ± 0.03 nmol/g w.w.; VAL (15 mg/kg, 2 d post-sTBI): 0.06 ± 0.03 nmol/g w.w.; ALA (15 mg/kg, 7 d post-sTBI): 0.38 ± 0.04 nmol/g w.w.; ARG (15 mg/kg, 7 d post-sTBI): 0.14 ± 0.02 nmol/g w.w.; ASN (15 mg/kg, 7 d post-sTBI): 0.10 ± 0.02 nmol/g w.w.; ASP (15 mg/kg, 7 d post-sTBI): 2.29 ± 0.37 nmol/g w.w.; CITR (15 mg/kg, 7 d post-sTBI): 0.03 ± 0.01 nmol/g w.w.; GABA (15 mg/kg, 7 d post-sTBI): 1.43 ± 0.15 µmol/g w.w.; GLN (15 mg/kg, 7 d post-sTBI): 3.73 ± 0.38 nmol/g w.w.; GLU (15 mg/kg, 7 d post-sTBI): 10.25 ± 0.86 nmol/g w.w.; GLY (15 mg/kg, 7 d post-sTBI): 0.78 ± 0.12 nmol/g w.w.; L-Cystat (15 mg/kg, 7 d post-sTBI): 0.25 ± 0.04 nmol/g w.w.; MET (15 mg/kg, 7 d post-sTBI): 0.04 ± 0.01 nmol/g w.w.; ORN (15 mg/kg, 7 d post-sTBI): 0.01 ± 0.01 nmol/g w.w.; SAH (15 mg/kg, 7 d post-sTBI): 0.04 ± 0.01 nmol/g w.w.; SER (15 mg/kg, 7 d post-sTBI): 0.76 ± 0.12 nmol/g w.w.; THR (15 mg/kg, 7 d post-sTBI): 0.72 ± 0.14 nmol/g w.w.; HYS concentration in deproteinized brain homogenate [2]: 0.06 ± 0.01 nmol/g w.w.; ILE concentration in deproteinized brain homogenate [2]: 0.03 ± 0.01 nmol/g w.w.; LEU concentration in deproteinized brain homogenate [2]: 0.04 ± 0.01 nmol/g w.w.; LYS concentration in deproteinized brain homogenate [2]: 0.23 ± 0.07 nmol/g w.w.; PHE concentration in deproteinized brain homogenate [2]: 0.05 ± 0.01 nmol/g w.w.; TAU concentration in deproteinized brain homogenate [2]: 3.47 ± 0.44 nmol/g w.w.; TRP concentration in deproteinized brain homogenate [2]: 0.03 ± 0.01 nmol/g w.w.; TYR concentration in deproteinized brain homogenate [2]: 0.14 ± 0.02 nmol/g w.w.; VAL concentration in deproteinized brain homogenate [2]: 0.07 ± 0.01 nmol/g w.w.; HYS concentration in deproteinized brain homogenate [3]: 0.06 ± 0.01 nmol/g w.w.; ILE concentration in deproteinized brain homogenate [3]: 0.04 ± 0.01 nmol/g w.w.; LEU concentration in deproteinized brain homogenate [3]: 0.05 ± 0.01 nmol/g w.w.; LYS concentration in deproteinized brain homogenate [3]: 0.19 ± 0.06 nmol/g w.w.; PHE concentration in deproteinized brain homogenate [3]: 0.05 ± 0.01 nmol/g w.w.; TAU concentration in deproteinized brain homogenate [3]: 4.02 ± 0.51 nmol/g w.w.; TRP concentration in deproteinized brain homogenate [3]: 0.01 ± 0.01 nmol/g w.w.; TYR concentration in deproteinized brain homogenate [3]: 0.13 ± 0.02 nmol/g w.w.; VAL concentration in deproteinized brain homogenate [3]: 0.08 ± 0.01 nmol/g w.w.; HYS concentration in deproteinized brain homogenate [4]: 0.06 ± 0.01 nmol/g w.w.; ILE concentration in deproteinized brain homogenate [4]: 0.05 ± 0.01 nmol/g w.w.; LEU concentration in deproteinized brain homogenate [4]: 0.05 ± 0.01 nmol/g w.w.; LYS concentration in deproteinized brain homogenate [4]: 0.21 ± 0.04 nmol/g w.w.; PHE concentration in deproteinized brain homogenate [4]: 0.06 ± 0.01 nmol/g w.w.; TAU concentration in deproteinized brain homogenate [4]: 3.51 ± 0.44 nmol/g w.w.; TRP concentration in deproteinized brain homogenate [4]: 0.02 ± 0.01 nmol/g w.w.; TYR concentration in deproteinized brain homogenate [4]: 0.13 ± 0.02 nmol/g w.w.; VAL concentration in deproteinized brain homogenate [4]: 0.08 ± 0.01 nmol/g w.w.; HYS concentration in deproteinized brain homogenate [5]: 0.06 ± 0.01 nmol/g w.w.; ILE concentration in deproteinized brain homogenate [5]: 0.07 ± 0.01 nmol/g w.w.; LEU concentration in deproteinized brain homogenate [5]: 0.07 ± 0.01 nmol/g w.w.; LYS concentration in deproteinized brain homogenate [5]: 0.21 ± 0.05 nmol/g w.w.; PHE concentration in deproteinized brain homogenate [5]: 0.07 ± 0.01 nmol/g w.w.; TAU concentration in deproteinized brain homogenate [5]: 3.38 ± 0.44 nmol/g w.w.; TRP concentration in deproteinized brain homogenate [5]: 0.03 ± 0.01 nmol/g w.w.; TYR concentration in deproteinized brain homogenate [5]: 0.14 ± 0.02 nmol/g w.w.; VAL concentration in deproteinized brain homogenate [5]: 0.10 ± 0.01 nmol/g w.w.
